This note sets out measurements from patent publication US20170121344A1 (Siga Technologies, Inc., priority 2009, published 2017).

Where a name gives a salt, the structure may show the parent alone. Read-outs that look alike come from different tables or passages of the source.

The assay deals with Dengue-2 (Strain New Guinea C). Description: Viral yield assay against Dengue-2 in Vero cells. Type of assay: cell-based, Dengue virus. Particulars: Dengue virus. Summed up:
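Vero cells were infected with dengue-2 at MOI 0.1, treated with compound (DMSO control), and kept at 37° C. They were harvested 48 hours post infection and yield was titered on Vero cells. EC50 came from the yield curve, and the other serotypes were run in a similar way.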

Setting [1] is: Vero, 48 h, read-out: Activity (EC50 class) against Dengue-2 Virus in Vero cells.
The mark [2] stands for this setting: DENV2, viral yield assay, Vero cells, MOI 0.1, 48 hours post infection, read-out: Activity (EC50 in μM) DENV-2.
The mark [3] stands for this setting: Vero cells, MOI 0.1, harvested 48 hours post infection, read-out: Activity (EC50 class) against Dengue-2 Virus in Vero cells.

`Cc1nc2c(sc3nc4c(cc32)COC(C)(C)C4)c(=O)n1CCN1CCOCC1` [Compound 231, 3,8,8-Trimethyl-2-(2-morpholin-4-yl-ethyl)-8,9-dihydro-2H,6H-7-oxa-11-thia-2,4,10-triaza-benzo[b]fluoren-1-one]: the EC50 under setting [1] is > 25 µM.

On to `COc1cccc(-c2ccc3c(N)c(C(=O)Nc4cccc(SC)c4)sc3n2)c1` [Compound 505, 3-amino-6-(3-methoxyphenyl)-N-(3-methylsulfanylphenyl)thieno[2,3-b] pyridine-2-carboxamide], for which, under setting [2], the EC50 was < 5 µM.

For the compound `Cc1ccc2c(n1)sc1c(=O)[nH]c(C)nc12` [Compound 154, 2,7-Dimethyl-3H-pyrido[3′,2′:4,5]thieno[3,2-d]pyrimidin-4-one], the EC50 under setting [3] is > 25 µM.

As for `Nc1c(C(=O)Nc2cccc(C(F)(F)F)c2)sc2nc3c(cc12)CCCCCC3` [Compound 370, 3-amino-N-(3-(trifluoromethyl)phenyl)-5,6,7,8,9,10-hexahydrocycloocta[b] thieno[3,2-e]pyridine-2-carboxamide], under setting [2], the EC50 was < 5 µM.

With `Nc1c(C(=O)Nc2ccc([N+](=O)[O-])cc2)sc2nc3c(c(-c4ccco4)c12)CCCC3` [Compound 213, 3-Amino-4-furan-2-yl-5,6,7,8-tetrahydro-thieno[2,3-b]quinoline-2-carboxylic acid (4-nitro-phenyl)-amide], under setting [3], the EC50 was > 25 µM.

On to `NC(=O)c1sc2nc(-c3cccnc3)ccc2c1N` [Compound 164, 3-Amino-6-pyridin-3-yl-thieno[2,3-b]pyridine-2-carboxylic acid amide], for which the EC50 under setting [3] is > 25 µM.

For the compound `COCc1cc(C)nc2sc(C(=O)Nc3ccc(N4CCOCC4)cc3)c(N)c12` [Compound 243, 3-Amino-4-methoxymethyl-6-methyl-thieno[2,3-b]pyridine-2-carboxylic acid (4-morpholin-4-yl-phenyl)-amide], under setting [3], the EC50 was > 25 µM.

Take `CC(C)N1CCc2nc3sc(C(=O)Nc4ccc(C(F)(F)F)cc4)c(N)c3cc2C1` [Compound 60, 3-Amino-6-isopropyl-5,6,7,8-tetrahydro-thieno[2,3-b][1,6]naphthyridine-2-carboxylic acid (4-trifluoromethyl-phenyl)-amide]: the EC50 under setting [3] is < 5 µM.

As for `Nc1c(C(=O)Nc2nccs2)sc2nc(-c3ccccc3)cc(C(F)(F)F)c12` [Compound 192, 3-Amino-6-phenyl-4-trifluoromethyl-thieno[2,3-b]pyridine-2-carboxylic acid thiazol-2-ylamide], the EC50 under setting [3] is > 25 µM.

For the compound `CCN(C(=O)c1sc2nc(C)cc(C)c2c1N)c1ccccc1` [Compound 102, 3-Amino-4,6-dimethyl-thieno[2,3-b]pyridine-2-carboxylic acid ethyl-phenyl-amide], the EC50 under setting [3] lay in the range of 5 to 25 µM.

In the case of `CCc1nnc(NC(=O)c2sc3nc4c(cc3c2N)CCC4)s1` [Compound 190, 3-Amino-6,7-dihydro-5H-cyclopenta[b]thieno[3,2-e]pyridine-2-carboxylic acid (5-ethyl-[1,3,4]thiadiazol-2-yl)-amide], under setting [3], the EC50 is > 25 µM.

Turning to `CCOC(=O)c1c(NC(=O)c2sc3nc4c(cc3c2N)CN(C)CC4)sc2c1CCCC2` [Compound 57, 2-[(3-Amino-6-methyl-5,6,7,8-tetrahydro-thieno[2,3-b][1,6]naphthyridine-2-carbonyl)-amino]-4,5,6,7-tetrahydro-benzo[b]thiophene-3-carboxylic acid ethyl ester], the half-maximal effective concentration (EC50) under setting [3] is < 5 µM.

In the case of `Cc1ccc(F)cc1NC(=O)c1sc2nc(-c3cccs3)ccc2c1N` [Compound 463, 3-amino-N-(5-fluoro-2-methyl-phenyl)-6-(2-thienyl)thieno [2,3-b]pyridine-2-carboxamide], the EC50 under setting [2] was < 5 µM.

On to `Cc1c(C(=O)Nc2ccc(F)cc2)sc2ncc(C(=O)Nc3ccc(F)cc3)cc12` [Compound 397, N2,N5-bis(4-fluorophenyl)-3-methyl-thieno[2,3-b]pyridine-2,5-dicarboxamide], for which the EC50 under setting [2] was < 5 µM.

As to `COc1ccccc1-c1cc(-c2ccccc2)c2c(N)c(C(=O)NC3CC3)sc2n1` [Compound 67, 3-Amino-6-(2-methoxy-phenyl)-4-phenyl-thieno[2,3-b]pyridine-2-carboxylic acid cyclopropylamide], the EC50 under setting [3] was in the range of 5 to 25 µM.

`Nc1c(C(=O)Nc2nnc(-c3ccccc3)s2)sc2nc(-c3cccs3)cc(C(F)(F)F)c12` [Compound 5, 3-Amino-6-thiophen-2-yl-4-trifluoromethyl-thieno[2,3-b]pyridine-2-carboxylic acid (5-phenyl-[1,3,4]thiadiazol-2-yl)-amide]: the concentration giving a half-maximal response (EC50) under setting [3] is < 5 µM.

Turning to `Nc1c(C(=O)Nc2ccc3c(c2)OCO3)sc2nc(-c3ccc(F)cc3)ccc12` [Compound 608, 3-amino-N-(1,3-benzodioxol-5-yl)-6-(4-fluorophenyl)thieno[2,3-b]pyridine-2-carboxamide], the concentration for a half-maximal effect (EC50) (DENV2, Vero, 48 h, read-out: Activity (EC50 in μM) DENV-2) is < 5 µM.

Consider `Nc1c(C(=O)Nc2nccs2)sc2nc3c(cc12)CCCCC3` [Compound 366, 3-amino-N-(thiazol-2-yl)-6,7,8,9-tetrahydro-5H-cyclohepta [b]thieno[3,2-e]pyridine-2-carboxamide], for which the EC50 under setting [2] is < 5 µM.

Turning to `Nc1c(C(=O)Nc2nnc(-c3ccccc3)s2)sc2nc3c(cc12)CCNCC3` [Compound 115, 3-Amino-6,7,8,9-tetrahydro-5H-1-thia-7,10-diaza-cyclohepta[f]indene-2-carboxylic acid (5-phenyl-[1,3,4]thiadiazol-2-yl)-amide hydrochloride], the EC50 under setting [3] is 5 to 25 µM.

Turning to `COc1ccccc1NC(=O)c1sc2nc(N3CCOCC3)cc(-c3ccccc3)c2c1O` [Compound 385, 3-hydroxy-N-(2-methoxyphenyl)-6-morpholino-4-phenyl-thieno[2,3-b] pyridine-2-carboxamide], the EC50 under setting [2] was 5 to 25 µM.

For `CCCc1ccc2c(N)c(C(=O)Nc3nc(C(F)(F)F)ccc3Cl)sc2n1` [Compound 73, 3-Amino-6-propyl-thieno[2,3-b]pyridine-2-carboxylic acid (3-chloro-6-trifluoromethyl-pyridin-2-yl)-amide], the EC50 under setting [3] fell in the range of 5 to 25 µM.

For the compound `Cc1ccc(NC(=O)c2sc3nc(C)cc(C(F)(F)F)c3c2N)cc1` [Compound 165, 3-Amino-6-methyl-4-trifluoromethyl-thieno[2,3-b]pyridine-2-carboxylic acid p-tolylamide], under setting [3], the EC50 was > 25 µM.

As to `COc1cccc(-c2ccc3c(N)c(C(=O)Nc4ccc(Cl)cc4Cl)sc3n2)c1` [Compound 545, 3-amino-N-(2,4-dichlorophenyl)-6-(3-methoxyphenyl)thieno[2,3-b]pyridine-2-carboxamide], under setting [2], the EC50 was < 5 µM.

Consider `N#Cc1c(N)nc2sc(C(=O)Nc3ccc(Br)cc3)c(N)c2c1-c1ccco1` [Compound 6, 3,6-Diamino-5-cyano-4-furan-2-yl-thieno[2,3-b]pyridine-2-carboxylic acid (4-bromo-phenyl)-amide], for which the EC50 under setting [3] was < 5 µM.

Turning to `NC(=O)c1sc2nc3c(c(-c4ccc(Cl)cc4)c2c1N)CCCC3` [Compound 224, 3-Amino-4-(4-chloro-phenyl)-5,6,7,8-tetrahydro-thieno[2,3-b]quinoline-2-carboxylic acid amide], the EC50 under setting [1] is > 25 µM.

With `CCN1CCc2nc3sc(C(=O)Nc4ccc(C(F)(F)F)cc4)c(N)c3cc2C1` [Compound 21, 3-Amino-6-ethyl-5,6,7,8-tetrahydro-thieno[2,3-b][1,6]naphthyridine-2-carboxylic acid (4-trifluoromethyl-phenyl)-amide], the EC50 under setting [3] is < 5 µM.

With `CC1(C)Cc2nc3sc4c(=O)n(Cc5ccccc5)cnc4c3cc2CO1` [Compound 174, 2-Benzyl-8,8-dimethyl-8,9-dihydro-2H,6H-7-oxa-11-thia-2,4,10-triaza-benzo[b]fluoren-1-one], under setting [3], the concentration giving a half-maximal response (EC50) is > 25 µM.

Regarding `Nc1c(C(=O)Nc2ccc(F)cc2)sc2nc3c(cc12)CCC3` [Compound 177, 3-Amino-6,7-dihydro-5H-cyclopenta[b]thieno[3,2-e]pyridine-2-carboxylic acid (4-fluoro-phenyl)-amide], the EC50 under setting [3] is > 25 µM.

Take `CN1CCc2nc3sc(C(=O)NCc4ccc5c(c4)OCO5)c(N)c3cc2C1` [Compound 269, 3-Amino-6-methyl-5,6,7,8-tetrahydro-thieno[2,3-b][1,6]naphthyridine-2-carboxylic acid (benzo[1,3]dioxol-5-ylmethyl)-amide]: under setting [3], the EC50 is > 25 µM.

Consider `COc1ccc(Cl)cc1NC(=O)c1sc2nc(-c3ccc(C)cc3)ccc2c1N` [Compound 641, 3-amino-N-(5-chloro-2-methoxy-phenyl)-6-(p-tolyl)thieno[2,3-b]pyridine-2-carboxamide], for which, under setting [2], the EC50 was < 5 µM.

As for `Nc1c(C(=O)Nc2cccc(Br)c2)sc2ncccc12` [Compound 421, 3-amino-N-(3-bromophenyl)thieno[2,3-b] pyridine-2-carboxamide], the concentration giving a half-maximal response (EC50) under setting [2] fell in the range of 5 to 25 µM.

`CN(C)c1ccnc2sc(C(=O)NCc3ccccc3)c(N)c12` [Compound 77, 3-Amino-4-dimethylamino-thieno[2,3-b]pyridine-2-carboxylic acid benzylamide]: the EC50 under setting [3] fell in the range of 5 to 25 µM.

For the compound `Cc1sc(NC(=O)c2sc3nc4c(cc3c2N)CN(C)CC4)c(C#N)c1C` [Compound 114, 3-Amino-6-methyl-5,6,7,8-tetrahydro-thieno[2,3-b][1,6]naphthyridine-2-carboxylic acid (3-cyano-4,5-dimethyl-thiophen-2-yl)-amide], under setting [3], the 50% effective concentration (EC50) lay within 5 to 25 µM.

With `COc1ccc(NC(=O)c2sc3nc(-c4ccccc4)cc(C(F)(F)F)c3c2N)cc1` [Compound 119, 3-Amino-6-phenyl-4-trifluoromethyl-thieno[2,3-b]pyridine-2-carboxylic acid (4-methoxy-phenyl)-amide], under setting [3], the EC50 was > 25 µM.
